The target of test [1] is Sigma non-opioid intracellular receptor 1 (Rattus norvegicus, UniProt Q9R0C9).
Test [2] concerns the target Muscarinic acetylcholine receptor M3 (Rattus norvegicus, UniProt P08483).
Test [3] concerns the target T1, Alpha-1A adrenergic receptor (Rattus norvegicus, UniProt P43140).
T1 sequence (P43140 whole entry): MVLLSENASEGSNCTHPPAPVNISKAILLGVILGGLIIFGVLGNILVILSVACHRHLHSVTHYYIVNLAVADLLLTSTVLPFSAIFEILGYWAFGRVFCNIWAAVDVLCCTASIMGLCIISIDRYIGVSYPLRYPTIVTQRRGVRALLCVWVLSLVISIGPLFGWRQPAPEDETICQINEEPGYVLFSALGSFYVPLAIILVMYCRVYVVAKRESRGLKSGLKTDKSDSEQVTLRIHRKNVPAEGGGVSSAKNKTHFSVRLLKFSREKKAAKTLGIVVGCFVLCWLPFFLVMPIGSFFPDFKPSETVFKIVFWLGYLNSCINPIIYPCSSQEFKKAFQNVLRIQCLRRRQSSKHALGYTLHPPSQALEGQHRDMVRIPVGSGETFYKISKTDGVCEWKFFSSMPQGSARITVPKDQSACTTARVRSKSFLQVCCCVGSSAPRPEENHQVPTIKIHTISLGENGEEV

Test [4] addresses Histamine H1 receptor (Cavia porcellus, UniProt P31389).
Test [5] has as its target Gamma-aminobutyric acid receptor subunit alpha-1 (Rattus norvegicus, UniProt P62813).
The target in test [6] is Beta-2 adrenergic receptor (Rattus norvegicus, UniProt P10608).
Chain of Beta-2 adrenergic receptor (P10608 whole entry): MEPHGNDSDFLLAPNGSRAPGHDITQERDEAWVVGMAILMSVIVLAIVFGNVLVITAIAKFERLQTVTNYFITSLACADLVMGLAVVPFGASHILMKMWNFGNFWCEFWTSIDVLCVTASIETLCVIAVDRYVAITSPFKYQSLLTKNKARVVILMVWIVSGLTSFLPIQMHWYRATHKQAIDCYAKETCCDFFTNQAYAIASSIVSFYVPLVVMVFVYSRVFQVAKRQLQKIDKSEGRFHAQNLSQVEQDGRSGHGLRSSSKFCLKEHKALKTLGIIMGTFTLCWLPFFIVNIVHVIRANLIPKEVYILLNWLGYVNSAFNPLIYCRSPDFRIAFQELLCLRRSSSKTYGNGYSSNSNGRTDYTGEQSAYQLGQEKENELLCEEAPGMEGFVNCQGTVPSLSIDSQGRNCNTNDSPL
For test [7], the target named is D(1A) dopamine receptor (Rattus norvegicus, UniProt P18901).
Chain of D(1A) dopamine receptor (P18901 whole entry): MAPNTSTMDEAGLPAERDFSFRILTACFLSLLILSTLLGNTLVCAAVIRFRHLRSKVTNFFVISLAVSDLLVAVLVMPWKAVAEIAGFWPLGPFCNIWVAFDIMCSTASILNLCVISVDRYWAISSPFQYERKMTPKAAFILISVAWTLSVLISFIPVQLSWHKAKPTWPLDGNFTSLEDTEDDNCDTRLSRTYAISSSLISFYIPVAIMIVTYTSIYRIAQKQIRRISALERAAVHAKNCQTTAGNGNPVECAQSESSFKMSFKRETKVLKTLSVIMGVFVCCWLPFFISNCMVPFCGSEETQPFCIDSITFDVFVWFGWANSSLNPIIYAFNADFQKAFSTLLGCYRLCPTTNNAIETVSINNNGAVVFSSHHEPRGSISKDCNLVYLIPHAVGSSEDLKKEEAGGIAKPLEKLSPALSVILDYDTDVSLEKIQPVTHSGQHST
Test [8] deals with T2, Muscarinic acetylcholine receptor M2 (Rattus norvegicus, UniProt P10980).
T2 sequence (P10980 whole entry): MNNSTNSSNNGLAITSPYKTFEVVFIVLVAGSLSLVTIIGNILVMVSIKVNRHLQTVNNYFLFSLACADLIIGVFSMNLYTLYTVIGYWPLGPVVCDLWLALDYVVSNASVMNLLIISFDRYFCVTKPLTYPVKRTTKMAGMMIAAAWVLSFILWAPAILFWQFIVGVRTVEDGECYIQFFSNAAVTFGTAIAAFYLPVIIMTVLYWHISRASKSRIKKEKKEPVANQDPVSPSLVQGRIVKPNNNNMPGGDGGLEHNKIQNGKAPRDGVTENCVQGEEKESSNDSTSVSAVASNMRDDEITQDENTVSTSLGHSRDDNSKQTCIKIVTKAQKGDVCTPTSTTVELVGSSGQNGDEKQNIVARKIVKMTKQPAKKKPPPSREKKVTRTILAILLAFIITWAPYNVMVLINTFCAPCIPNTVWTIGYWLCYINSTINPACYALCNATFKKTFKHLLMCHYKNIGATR

Test [9] addresses T3, 5-hydroxytryptamine receptor 1A (Rattus norvegicus, UniProt P19327).
T3 sequence (P19327 whole entry): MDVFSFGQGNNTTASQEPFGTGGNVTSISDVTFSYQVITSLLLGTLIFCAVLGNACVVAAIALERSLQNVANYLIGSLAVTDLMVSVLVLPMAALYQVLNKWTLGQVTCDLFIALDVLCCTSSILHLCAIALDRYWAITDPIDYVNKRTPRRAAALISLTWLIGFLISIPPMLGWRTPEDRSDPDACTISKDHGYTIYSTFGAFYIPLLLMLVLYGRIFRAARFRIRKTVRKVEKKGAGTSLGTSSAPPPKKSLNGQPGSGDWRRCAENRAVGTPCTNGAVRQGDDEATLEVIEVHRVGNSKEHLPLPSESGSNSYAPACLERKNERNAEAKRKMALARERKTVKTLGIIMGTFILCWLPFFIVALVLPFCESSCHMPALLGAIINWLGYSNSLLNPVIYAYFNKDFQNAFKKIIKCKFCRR

Test [10] deals with Kappa-type opioid receptor (Rattus norvegicus, UniProt P34975).
Test [11] addresses Mu-type opioid receptor (Rattus norvegicus, UniProt P33535).
Test [12] has as its target Glutamate receptor 3 (Rattus norvegicus, UniProt P19492).
Test [13] has as its target 5-hydroxytryptamine receptor 2A (Rattus norvegicus, UniProt P14842).
Test [14] addresses T4, Muscarinic acetylcholine receptor M1 (Rattus norvegicus, UniProt P08482).
T4 sequence (P08482 whole entry): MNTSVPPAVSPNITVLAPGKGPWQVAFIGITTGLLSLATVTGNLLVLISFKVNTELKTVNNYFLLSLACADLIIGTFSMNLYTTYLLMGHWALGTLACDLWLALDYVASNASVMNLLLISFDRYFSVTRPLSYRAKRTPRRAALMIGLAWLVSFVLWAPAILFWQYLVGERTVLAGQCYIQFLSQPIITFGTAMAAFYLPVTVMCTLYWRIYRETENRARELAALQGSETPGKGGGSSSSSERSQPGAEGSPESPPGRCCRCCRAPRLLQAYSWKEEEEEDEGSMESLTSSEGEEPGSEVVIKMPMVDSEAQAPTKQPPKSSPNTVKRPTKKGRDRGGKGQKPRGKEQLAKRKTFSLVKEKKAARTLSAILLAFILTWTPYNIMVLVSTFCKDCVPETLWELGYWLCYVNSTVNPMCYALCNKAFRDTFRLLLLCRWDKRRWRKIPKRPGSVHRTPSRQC

Test [15] concerns the target D(2) dopamine receptor (Rattus norvegicus, UniProt P61169).
The target in test [16] is T5, Alpha-2C adrenergic receptor (Rattus norvegicus, UniProt P22086).
T5 sequence (P22086 whole entry): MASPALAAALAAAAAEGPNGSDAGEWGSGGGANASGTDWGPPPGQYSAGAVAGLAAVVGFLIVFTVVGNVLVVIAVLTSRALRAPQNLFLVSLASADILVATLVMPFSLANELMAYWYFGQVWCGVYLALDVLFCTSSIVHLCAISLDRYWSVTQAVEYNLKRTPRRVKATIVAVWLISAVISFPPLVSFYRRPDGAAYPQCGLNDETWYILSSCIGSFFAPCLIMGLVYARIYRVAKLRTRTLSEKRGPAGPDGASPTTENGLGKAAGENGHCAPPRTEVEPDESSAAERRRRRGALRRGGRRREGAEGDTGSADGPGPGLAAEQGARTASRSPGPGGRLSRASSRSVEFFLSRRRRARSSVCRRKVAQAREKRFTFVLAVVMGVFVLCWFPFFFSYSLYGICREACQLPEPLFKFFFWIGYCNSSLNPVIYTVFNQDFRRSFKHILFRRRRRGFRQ

Test [17] concerns the target T6, Gastrin/cholecystokinin type B receptor (Rattus norvegicus, UniProt P30553).
T6 sequence (P30553 whole entry): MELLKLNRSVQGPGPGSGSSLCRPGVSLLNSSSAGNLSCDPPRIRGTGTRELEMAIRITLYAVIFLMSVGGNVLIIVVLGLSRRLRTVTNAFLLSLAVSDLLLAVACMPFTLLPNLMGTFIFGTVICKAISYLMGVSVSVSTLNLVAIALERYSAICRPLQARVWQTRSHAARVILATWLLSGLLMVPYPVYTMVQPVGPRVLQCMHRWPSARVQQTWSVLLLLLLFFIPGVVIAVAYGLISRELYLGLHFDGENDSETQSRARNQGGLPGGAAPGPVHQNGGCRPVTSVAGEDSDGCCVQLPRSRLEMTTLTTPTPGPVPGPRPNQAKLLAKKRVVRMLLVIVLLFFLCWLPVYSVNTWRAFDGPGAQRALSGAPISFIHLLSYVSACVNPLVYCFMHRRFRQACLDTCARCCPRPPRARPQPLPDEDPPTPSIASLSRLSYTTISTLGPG

Data on 2 molecules can be found in BindingDB's records for PubMed 7910212 (Yamanouchi Pharmaceutical, 1994).

For orientation: pKi means −log10 of the Ki, conventionally taken in molar units. Higher therefore signals a small Ki.

Structures are written as SMILES. pKi: −log10 of the molar value. “And” between values parts separate entries of the source, which are not always exact repeats. Equal entries are not always repeated.

Chain of Muscarinic acetylcholine receptor M3 (P08483 whole entry): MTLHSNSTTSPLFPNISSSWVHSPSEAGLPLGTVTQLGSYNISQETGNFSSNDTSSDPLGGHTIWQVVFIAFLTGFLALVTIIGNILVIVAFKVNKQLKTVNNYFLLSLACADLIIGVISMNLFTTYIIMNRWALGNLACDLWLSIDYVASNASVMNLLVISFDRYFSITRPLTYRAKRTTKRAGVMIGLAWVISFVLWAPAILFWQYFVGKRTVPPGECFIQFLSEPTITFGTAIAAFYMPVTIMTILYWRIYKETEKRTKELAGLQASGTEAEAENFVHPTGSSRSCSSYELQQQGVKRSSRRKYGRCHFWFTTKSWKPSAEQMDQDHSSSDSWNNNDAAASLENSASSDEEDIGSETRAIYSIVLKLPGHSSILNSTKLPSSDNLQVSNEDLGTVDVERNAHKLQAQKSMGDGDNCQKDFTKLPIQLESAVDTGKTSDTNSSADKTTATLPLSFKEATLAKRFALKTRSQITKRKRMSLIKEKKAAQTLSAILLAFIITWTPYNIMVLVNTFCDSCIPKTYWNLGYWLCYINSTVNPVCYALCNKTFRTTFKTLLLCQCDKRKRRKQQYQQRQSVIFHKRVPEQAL
Chain of D(2) dopamine receptor (P61169 whole entry): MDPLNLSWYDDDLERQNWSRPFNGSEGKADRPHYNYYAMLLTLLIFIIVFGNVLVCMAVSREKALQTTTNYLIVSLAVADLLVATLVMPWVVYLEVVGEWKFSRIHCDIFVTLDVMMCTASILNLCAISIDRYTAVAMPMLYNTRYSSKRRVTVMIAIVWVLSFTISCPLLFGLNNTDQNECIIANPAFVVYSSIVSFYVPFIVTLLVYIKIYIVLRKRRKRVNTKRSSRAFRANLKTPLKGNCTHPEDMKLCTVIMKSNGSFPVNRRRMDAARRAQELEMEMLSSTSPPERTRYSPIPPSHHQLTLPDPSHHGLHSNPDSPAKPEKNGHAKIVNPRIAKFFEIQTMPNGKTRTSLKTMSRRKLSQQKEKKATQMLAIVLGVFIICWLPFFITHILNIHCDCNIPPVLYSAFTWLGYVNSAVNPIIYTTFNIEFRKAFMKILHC
Chain of Histamine H1 receptor (P31389 whole entry): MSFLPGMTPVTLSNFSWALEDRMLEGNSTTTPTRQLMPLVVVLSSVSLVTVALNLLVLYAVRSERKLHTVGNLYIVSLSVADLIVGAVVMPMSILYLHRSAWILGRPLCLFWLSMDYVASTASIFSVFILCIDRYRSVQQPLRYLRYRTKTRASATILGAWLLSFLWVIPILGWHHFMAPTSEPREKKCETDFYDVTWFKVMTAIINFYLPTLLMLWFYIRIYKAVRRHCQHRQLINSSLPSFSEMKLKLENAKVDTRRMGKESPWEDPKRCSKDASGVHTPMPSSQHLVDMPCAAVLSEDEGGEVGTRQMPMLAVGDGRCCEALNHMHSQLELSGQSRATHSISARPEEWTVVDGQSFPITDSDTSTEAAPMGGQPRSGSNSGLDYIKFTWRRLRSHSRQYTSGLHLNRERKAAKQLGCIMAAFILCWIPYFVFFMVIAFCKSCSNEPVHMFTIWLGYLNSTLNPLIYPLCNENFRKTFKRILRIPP
Chain of 5-hydroxytryptamine receptor 2A (P14842 whole entry): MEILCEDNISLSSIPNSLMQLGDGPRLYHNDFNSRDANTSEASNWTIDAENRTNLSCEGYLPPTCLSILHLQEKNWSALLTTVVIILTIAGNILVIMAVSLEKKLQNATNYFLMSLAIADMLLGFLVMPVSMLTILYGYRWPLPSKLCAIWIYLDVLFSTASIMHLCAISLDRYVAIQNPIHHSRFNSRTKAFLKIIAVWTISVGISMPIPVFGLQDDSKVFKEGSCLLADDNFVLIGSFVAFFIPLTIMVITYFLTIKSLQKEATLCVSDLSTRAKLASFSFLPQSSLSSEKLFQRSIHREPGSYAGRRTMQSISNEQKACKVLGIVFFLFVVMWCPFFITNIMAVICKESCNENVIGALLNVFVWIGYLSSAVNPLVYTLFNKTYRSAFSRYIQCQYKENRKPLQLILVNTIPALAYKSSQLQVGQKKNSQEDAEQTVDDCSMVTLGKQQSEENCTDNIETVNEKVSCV
Chain of Sigma non-opioid intracellular receptor 1 (Q9R0C9 whole entry): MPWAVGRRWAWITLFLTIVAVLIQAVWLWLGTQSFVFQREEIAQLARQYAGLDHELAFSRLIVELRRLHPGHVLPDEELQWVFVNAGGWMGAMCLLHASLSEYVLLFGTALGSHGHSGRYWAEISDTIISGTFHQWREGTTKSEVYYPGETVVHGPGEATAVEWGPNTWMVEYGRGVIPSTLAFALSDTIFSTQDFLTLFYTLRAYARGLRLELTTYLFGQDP
Chain of Mu-type opioid receptor (P33535 whole entry): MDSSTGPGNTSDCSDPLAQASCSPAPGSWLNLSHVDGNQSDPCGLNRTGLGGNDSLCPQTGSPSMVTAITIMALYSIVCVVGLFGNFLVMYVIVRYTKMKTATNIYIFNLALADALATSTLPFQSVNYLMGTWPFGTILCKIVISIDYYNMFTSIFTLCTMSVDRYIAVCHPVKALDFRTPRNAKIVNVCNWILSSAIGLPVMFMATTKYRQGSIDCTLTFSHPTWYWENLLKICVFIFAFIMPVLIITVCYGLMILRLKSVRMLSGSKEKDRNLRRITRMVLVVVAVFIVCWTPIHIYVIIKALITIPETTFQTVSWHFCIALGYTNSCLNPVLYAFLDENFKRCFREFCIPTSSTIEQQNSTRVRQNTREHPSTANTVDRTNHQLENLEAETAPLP
Chain of Gamma-aminobutyric acid receptor subunit alpha-1 (P62813 whole entry): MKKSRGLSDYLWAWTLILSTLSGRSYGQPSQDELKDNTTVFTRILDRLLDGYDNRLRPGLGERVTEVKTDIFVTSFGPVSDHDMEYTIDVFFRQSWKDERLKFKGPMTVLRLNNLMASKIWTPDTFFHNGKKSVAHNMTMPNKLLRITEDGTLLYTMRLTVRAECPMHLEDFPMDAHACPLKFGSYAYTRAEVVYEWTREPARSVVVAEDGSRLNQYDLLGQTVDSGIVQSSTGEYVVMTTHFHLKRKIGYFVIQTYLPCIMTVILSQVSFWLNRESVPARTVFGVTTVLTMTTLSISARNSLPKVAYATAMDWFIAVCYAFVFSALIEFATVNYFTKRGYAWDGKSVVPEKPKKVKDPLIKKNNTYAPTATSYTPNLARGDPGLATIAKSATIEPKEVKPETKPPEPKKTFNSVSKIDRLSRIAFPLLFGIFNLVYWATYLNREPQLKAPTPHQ
Chain of Glutamate receptor 3 (P19492 whole entry): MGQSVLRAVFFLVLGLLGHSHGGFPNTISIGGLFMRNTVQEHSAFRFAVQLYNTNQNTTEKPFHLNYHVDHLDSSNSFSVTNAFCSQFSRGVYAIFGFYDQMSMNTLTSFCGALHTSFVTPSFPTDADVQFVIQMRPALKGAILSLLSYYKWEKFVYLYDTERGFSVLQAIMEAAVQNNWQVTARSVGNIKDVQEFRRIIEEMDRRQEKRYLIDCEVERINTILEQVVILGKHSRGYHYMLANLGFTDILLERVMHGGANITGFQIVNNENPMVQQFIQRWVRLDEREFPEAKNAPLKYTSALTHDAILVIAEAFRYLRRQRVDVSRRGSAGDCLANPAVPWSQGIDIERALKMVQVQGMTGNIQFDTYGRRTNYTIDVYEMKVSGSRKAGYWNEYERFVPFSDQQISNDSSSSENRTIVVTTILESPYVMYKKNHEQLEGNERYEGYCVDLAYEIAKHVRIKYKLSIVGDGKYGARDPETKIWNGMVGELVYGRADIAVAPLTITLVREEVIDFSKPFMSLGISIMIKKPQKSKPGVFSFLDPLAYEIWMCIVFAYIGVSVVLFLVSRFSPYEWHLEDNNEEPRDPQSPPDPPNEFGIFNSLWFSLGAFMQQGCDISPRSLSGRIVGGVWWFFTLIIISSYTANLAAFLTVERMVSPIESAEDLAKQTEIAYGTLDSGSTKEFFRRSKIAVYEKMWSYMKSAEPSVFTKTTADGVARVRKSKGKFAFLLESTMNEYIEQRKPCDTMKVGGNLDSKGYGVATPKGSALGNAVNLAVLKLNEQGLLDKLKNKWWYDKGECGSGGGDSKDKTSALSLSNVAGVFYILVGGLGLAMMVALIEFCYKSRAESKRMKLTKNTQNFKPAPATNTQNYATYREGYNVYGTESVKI

`Cc1cccc(NC(=O)N[C@@H]2N=C(c3ccccc3)c3ccccc3N(CC(=O)c3ccccc3C)C2=O)c1`: the pKi in [1], in [2], in test [3], in test [4], in test [5] and in test [6] was < 5.00 each time. Moreover, the pKi in test [7], in test [8], in test [9], in [10], in [11] and in test [12] was < 5.00 throughout. Besides, the pKi in test [13], in test [14], in [15] and in test [16] was < 5.00 throughout.
In the case of `Cc1cccc(NC(=O)N[C@H]2N=C(c3ccccc3)c3ccccc3N(CC(=O)c3ccccc3C)C2=O)c1` [YM022 S-isomer], in test [17], the pKi is 6.85 and 6.31.
